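Exposure lasted 48 hours, with cells grown in 96-well plates and compounds tested at five concentrations. At the TGI there is no net growth.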
Columns and labels:
Test in all cases: growth of human tumour cells (NCI), 48 h
[1] = test system: IGROV1 ovarian
[2] = test system: A498 renal
[3] = test system: HCC-2998 colon
[4] = test system: TK-10 renal
[5] = test system: UACC-62 melanoma
[6] = test system: BT-549 breast
[7] = test system: NCI/ADR-RES ovarian
[8] = test system: SN12C renal
[9] = test system: UACC-257 melanoma
[10] = test system: MCF7 breast
[11] = test system: OVCAR-3 ovarian
[12] = test system: SR leukemia
[13] = test system: LOX IMVI melanoma
[14] = test system: HOP-92 NSCLC
[15] = test system: MDA-MB-435
[16] = test system: M14 melanoma
[17] = test system: SF-295 CNS
[18] = test system: CCRF-CEM leukemia
[19] = test system: MDA-N
[20] = test system: NCI-H23 lung
[21] = test system: T-47D breast
[22] = test system: SK-OV-3 ovarian
[23] = test system: CAKI-1 renal
[24] = test system: KM12 colon
[25] = test system: 786-0 renal
[26] = test system: NCI-H460 lung
[27] = test system: SK-MEL-2 melanoma
[28] = test system: SW-620 colon
[29] = test system: U251 CNS
[30] = test system: OVCAR-8 ovarian
[31] = test system: MOLT-4 leukemia
[32] = test system: HOP-62 NSCLC
[33] = test system: SF-539 CNS
[34] = test system: K-562 leukemia
[35] = test system: HCT-15 colon
[36] = test system: HL-60(TB) leukemia
[37] = test system: NCI-H522 lung
[38] = test system: HCT-116 colon
[39] = test system: COLO 205 colon
[40] = test system: UO-31 renal
[41] = test system: SF-268 CNS
[42] = test system: RPMI-8226 leukemia
[43] = test system: ACHN renal
[44] = test system: HT29 colon
[45] = test system: A549 NSCLC
[46] = test system: SNB-19 CNS
[47] = test system: OVCAR-5 ovarian
[48] = test system: RXF 393 renal
[49] = test system: SK-MEL-28 melanoma
[50] = test system: PC-3 prostate
[51] = test system: SK-MEL-5 melanoma
[52] = test system: HS 578T breast
[53] = test system: NCI-H226 lung
[54] = test system: EKVX NSCLC
[55] = test system: MALME-3M melanoma
[56] = test system: DU-145 prostate
[57] = test system: MDA-MB-231 breast
[58] = test system: SNB-75 CNS
[59] = test system: OVCAR-4 ovarian

What does the source list for `COc1ccc2c(c1)/C(=C\c1c(Cl)[nH]c3ccccc13)C(=O)N2`?
TGI [1]: 9.78 µM; TGI [2]: 23.7 µM; TGI [3]: 13.3 µM; TGI [4]: 23 µM; TGI [5]: 20 µM; TGI [6]: 14.8 µM; TGI [7]: 8.03 µM; TGI [8]: 24.7 µM; TGI [9]: 20.4 µM; TGI [10]: 13.7 µM; TGI [11]: 23 µM; TGI [12]: 8.25 µM; TGI [13]: 17.5 µM; TGI [14]: 12.5 µM; TGI [15]: 3.82 µM; TGI [16]: 16.2 µM; TGI [17]: 6.26 µM; TGI [18]: 13.4 µM; TGI [19]: 3.83 µM; TGI [20]: 25 µM; TGI [21]: > 100 µM; TGI [22]: 9.87 µM; TGI [23]: 27.1 µM; TGI [24]: 15.1 µM; TGI [25]: 17 µM; TGI [26]: 14.5 µM; TGI [27]: 16.1 µM; TGI [28]: 13.4 µM; TGI [29]: 13.2 µM; TGI [30]: 23.8 µM; TGI [31]: 41 µM; TGI [32]: 17.9 µM; TGI [33]: 12.5 µM; TGI [34]: 12.2 µM; TGI [35]: 37.2 µM; TGI [36]: 10.8 µM; TGI [37]: 11.5 µM; TGI [38]: 10.8 µM; TGI [39]: 6.6 µM; TGI [40]: 20.2 µM; TGI [41]: 16 µM; TGI [42]: 16.3 µM; TGI [43]: 20.8 µM; TGI [44]: 5.2 µM; TGI [45]: 19 µM; TGI [46]: 19.3 µM; TGI [47]: 26.8 µM; TGI [48]: 13.4 µM; TGI [49]: 8.05 µM; TGI [50]: 18 µM; TGI [51]: 14.8 µM; TGI [52]: 9.88 µM; TGI [53]: 70.8 µM; TGI [54]: 18.5 µM; TGI [55]: 19.2 µM; TGI [56]: 56.7 µM; TGI [57]: 26.5 µM

What does the source list for `CC1(C)CCCC(C)(C2CCC3(C)C2C(O)CC2C4(C)CCC(O)C(C)(C)C4CCC23C)O1` (stereo not drawn)?
TGI [1]: > 100 µM; TGI [2]: > 100 µM; TGI [3]: > 100 µM; TGI [4]: > 100 µM; TGI [5]: > 100 µM; TGI [6]: > 100 µM; TGI [7]: > 100 µM; TGI [8]: > 100 µM; TGI [9]: > 100 µM; TGI [10]: > 100 µM; TGI [12]: > 100 µM; TGI [13]: > 100 µM; TGI [14]: > 100 µM; TGI [15]: > 100 µM; TGI [16]: > 100 µM; TGI [17]: > 100 µM; TGI [18]: > 100 µM; TGI [19]: > 100 µM; TGI [20]: > 100 µM; TGI [21]: > 100 µM; TGI [22]: > 100 µM; TGI [23]: > 100 µM; TGI [58]: > 100 µM; TGI [24]: > 100 µM; TGI [25]: > 100 µM; TGI [26]: > 100 µM; TGI [27]: > 100 µM; TGI [59]: > 100 µM; TGI [28]: > 100 µM; TGI [29]: > 100 µM; TGI [30]: > 100 µM; TGI [31]: > 100 µM; TGI [33]: > 100 µM; TGI [34]: > 100 µM; TGI [35]: > 100 µM; TGI [36]: > 100 µM; TGI [37]: > 100 µM; TGI [38]: > 100 µM; TGI [39]: > 100 µM; TGI [40]: > 100 µM; TGI [41]: > 100 µM; TGI [43]: > 100 µM; TGI [44]: > 100 µM; TGI [45]: > 100 µM; TGI [46]: > 100 µM; TGI [47]: > 100 µM; TGI [48]: 30.9 µM; TGI [49]: > 100 µM; TGI [50]: > 100 µM; TGI [51]: > 100 µM; TGI [52]: 89.1 µM; TGI [53]: > 100 µM; TGI [54]: > 100 µM; TGI [55]: > 100 µM; TGI [56]: > 100 µM; TGI [57]: > 100 µM

From PubChem BioAssay (NCI)
